Source: patent US12588678B2, “Oxazoline compound, synthesis method therefor and application thereof” (NANKAI UNIVERSITY, priority 2019, dated 2026)

Legend:
[1] = test system: Tetranychus cinnabarinus mite larvae; assay: Larvicidal activity test, dipping method on bean seedling leaves; format: in vivo; conditions: for acaricidal activity compared with etoxazole: Tetranychus cinnabarinus eggs and larvae, etoxazole as reference; for mortality at 0.01 µg/mL: read-out: mortality of mite larvae (%), 0.01 mg/L; for mortality at 0.05 µg/mL: read-out: mortality of mite larvae (%), 0.05 mg/L; for mortality at 0.1 µg/mL: read-out: mortality of mite larvae (%), 0.1 mg/L; for mortality at 1 µg/mL: read-out: mortality of mite larvae (%), 1 mg/L; for mortality at 10 µg/mL: read-out: mortality of mite larvae (%), 10 mg/L; for mortality at 100 µg/mL: read-out: mortality of mite larvae (%), 100 mg/L; for mortality at 200 µg/mL: read-out: mortality of mite larvae (%), 200 mg/L; for larvicidal activity, times that of etoxazole: relative to etoxazole; for mortality at 0.5 µg/mL: read-out: mortality of mite larvae (%), 0.5 mg/L
Procedure, shortened: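 Dipping method: larvae-infested bean seedling leaves were immersed 5–6 s in Tween-containing test solution, with a blank of additives only. Larvae had hatched over 5 days from eggs laid during 24 h at 25° C. Mortality % was counted 4 days later, in triplicate.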

[2] = test system: Tetranychus cinnabarinus mite eggs; assay: Activity against mite eggs, dipping method on bean seedling leaves; format: in vivo; conditions: for mortality at 0.01 µg/mL: read-out: mortality of mite eggs (%), 0.01 mg/L; for mortality at 0.1 µg/mL: read-out: mortality of mite eggs (%), 0.1 mg/L; for mortality at 1 µg/mL: read-out: mortality of mite eggs (%), 1 mg/L; for mortality at 10 µg/mL: read-out: mortality of mite eggs (%), 10 mg/L; for mortality at 100 µg/mL: read-out: mortality of mite eggs (%), 100 mg/L; for mortality at 200 µg/mL: read-out: mortality of mite eggs (%), 200 mg/L; for mortality at 0.5 µg/mL: read-out: mortality of mite eggs (%), 0.5 mg/L
Procedure, shortened: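 Dipping method, three replicates each: leaves carrying 1-day-old mite eggs (24 h laying at 25° C.) immersed 5-6 s in compound solution or additive-only blank. Dead eggs counted 4 days later as percent of eggs treated.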

[3] = Tetranychus cinnabarinus, 96 h, checked after 4 days

Row | Compound | mortality at 0.1 µg/mL [1, 3] | mortality at 1 µg/mL [1, 3] | mortality at 10 µg/mL [1, 3] | mortality at 100 µg/mL [1, 3] | mortality at 200 µg/mL [1, 3] | mortality at 0.1 µg/mL [2, 3] | mortality at 1 µg/mL [2, 3] | mortality at 10 µg/mL [2, 3] | mortality at 100 µg/mL [2, 3] | mortality at 200 µg/mL [2, 3] | other results
1 | Cc1cccc2ccn(Cc3ccc(C4COC(c5c(F)cccc5F)=N4)cc3)c12 (stereo not drawn) [Compound R1-18] | 75% | 85% | 100% | 100% | 100% | 75% | 80% | 100% | 100% | 100% | acaricidal activity compared with etoxazole [1]: higher acaricidal activity than etoxazole; mortality at 0.01 µg/mL [1, 3]: 45%; mortality at 0.05 µg/mL [1, 3]: 55%; larvicidal activity, times that of etoxazole [1]: 5 times; mortality at 0.01 µg/mL [2, 3]: 30%; mortality at 0.05 µg/mL ([2]; Tetranychus cinnabarinus, 96 h, read-out: mortality of mite eggs (%), 0.05 mg/L, checked after 4 days): 55%
2 | CCS(=O)(=O)Oc1ccc(C2COC(c3c(F)cccc3F)=N2)cc1 (stereo not drawn) [Compound R3-2] |  | 60% | 90% | 100% | 100% |  | 50% | 80% | 95% | 100% | 
3 | O=S(=O)(Oc1ccc(C2COC(c3c(F)cccc3F)=N2)cc1)c1ccc2ccccc2c1 (stereo not drawn) [Compound R3-21] | 65% | 95% | 100% | 100% | 100% |  | 65% | 90% | 95% | 100% | 
4 | Fc1cccc(F)c1C1=NC(c2ccc(COc3ccccn3)cc2)CO1 (stereo not drawn) [Compound R2-12] |  | 50% | 95% | 100% | 100% |  | 65% | 90% | 100% | 100% | 
5 | Fc1cccc(F)c1C1=NC(c2ccc(Cn3ccc4cc(Cl)ccc43)cc2)CO1 (stereo not drawn) [Compound R1-23] |  | 50% | 80% | 100% | 100% |  | 60% | 75% | 100% | 100% | 
6 | Fc1ccc(OCc2ccc(C3COC(c4c(F)cccc4F)=N3)cc2)cc1 (stereo not drawn) [Compound R2-18] | 70% | 80% | 88% | 100% | 100% | 85% | 90% | 96% | 100% | 100% | 
7 | CC(C)(C)c1ccc(S(=O)(=O)Oc2ccc(C3COC(c4c(F)cccc4F)=N3)cc2)cc1 (stereo not drawn) [Compound R3-17] | 85% | 95% | 100% | 100% | 100% | 45% | 90% | 96% | 100% | 100% | acaricidal activity compared with etoxazole [1]: equivalent or better acaricidal activity compared with etoxazole; mortality at 0.01 µg/mL [1, 3]: 35%; mortality at 0.05 µg/mL [1, 3]: 50%; mortality at 0.5 µg/mL [1, 3]: 90%; mortality at 0.5 µg/mL [2, 3]: 78%
8 | Fc1ccc2ccn(Cc3ccc(C4COC(c5c(F)cccc5F)=N4)cc3)c2c1 (stereo not drawn) [Compound R1-21] |  |  | 60% | 100% | 100% |  | 30% | 70% | 100% | 100% | 
9 | Fc1cccc(F)c1C1=NC(c2ccc(COc3ccc(C(F)(F)F)cc3)cc2)CO1 (stereo not drawn) [Compound R2-23] | 75% | 80% | 95% | 100% | 100% | 75% | 85% | 90% | 90% | 100% | 
10 | O=S(=O)(Oc1ccc(C2COC(c3c(F)cccc3F)=N2)cc1)c1ccc(F)cc1 (stereo not drawn) [Compound R3-7] |  | 50% | 90% | 100% | 100% |  | 60% | 90% | 100% | 100% | 
11 | Fc1cccc(F)c1C1=NC(c2ccc(COc3ccc(Br)cc3)cc2)CO1 (stereo not drawn) [Compound R2-20] |  | 40% | 80% | 92% | 100% |  | 60% | 90% | 100% | 100% | 
12 | CCCOCc1ccc(C2COC(c3c(F)cccc3F)=N2)cc1 (stereo not drawn) [Compound R2-3] | 90% | 95% | 97% | 100% | 100% | 85% | 100% | 100% | 100% | 100% | acaricidal activity compared with etoxazole [1]: higher acaricidal activity than etoxazole; mortality at 0.001 µg/mL ([1]; Tetranychus cinnabarinus, 96 h, read-out: mortality of mite larvae (%), 0.001 mg/L, checked after 4 days): 45%; mortality at 0.01 µg/mL [1, 3]: 70%; mortality at 0.5 µg/mL [1, 3]: 91%; larvicidal activity, times that of etoxazole [1]: 58 times; mortality at 0.001 µg/mL ([2]; Tetranychus cinnabarinus, 96 h, read-out: mortality of mite eggs (%), 0.001 mg/L, checked after 4 days): 50%; mortality at 0.01 µg/mL [2, 3]: 77%; mortality at 0.5 µg/mL [2, 3]: 92%; activity on mite eggs, times that of etoxazole ([2]; relative to etoxazole): 105 times
